Assay results as given in patent US20260374750A1, “LIGANDS SPECIFICALLY TARGETING VESICULAR GLUTAMATE TRANSPORTERS FOR SUPER-RESOLUTION IMAGING” (SORBONNE UNIVERSITÉ, priority 2021, published 2026).

Key:
[1] = system: glutamatergic synaptic vesicles (VGLUT1); experiment: Double labeling of isolated glutamatergic synaptic vesicles (VGLUT1 immunolabeling and fluorescent ligand); details: FIG. 7; confocal and STED
Description: Tests were performed in order to check the compatibility of the novel fluorescent ligands of the invention and a labeling by immunohistochemistry. Indeed, ultimately, combining a labeling of VAChT by immunohistochemistry and of VGLUT3 by a fluorescent ligand would allow obtaining more information on the distribution of these vesicular transporters in the striatum.
FIG. 7 illustrates the glutamatergic vesicular labeling by immunohistochemistry and the fluorescent ligand referenced G02 according to the invention. In particular, isolated glutamatergic synaptic vesicles were double labeled by immunolabeling of VGLUT1 (in red) and the fluorescent ligand G02 (in green). The observations were carried out using confocal microscopy and STED. […] In order to more accurately analyze the spot colocalization, it seems more appropriate to use lower and therefore more separated concentrations of vesicles.

[2] = system: isolated rat cortex synaptic vesicles; experiment: Confocal and STED observation of isolated synaptic vesicles incubated with fluorescent ligand; details: control wells
Description: In view of the preliminary results which are obtained, isolated synaptic vesicles are a model of choice in determining the distribution of the transporters VAChT and VGLUT3 at the vesicular level. The major pitfall in the use of this model is the absence of a protocol of use and results regarding their compatibility with super-resolution microscopy. First, the observability of fluorescent labeling in the vesicles was tested, as well as the effect of STED super-resolution microscopy on this model.
The different manipulations were carried out on rat or mouse synaptic vesicles, coming from the striatum or the cortex.
Material and methods: In a manner similar to vesicular reuptake tests, the fluorescent compounds to be studied are diluted in sucrose buffer (TPS 0.32 M) so as to obtain 10 μM of compound in the final observation medium. […]
Isolated rat cortex synaptic vesicles are then incubated in the presence of ATP and the fluorescent ligand G02 at 37 °C then are observed by confocal microscopy as well as super-resolution microscopy (STED). In order to ensure that the observed labeling corresponds to the fluorescent ligands accumulated on the surface or inside the vesicles, control wells were analyzed. No fluorescent signal is detected in wells containing only isolated vesicles (without fluorescent ligand), or only the fluorescent compound (without vesicles).

BON WT cells = experiment: Confocal fluorescence labeling of wild-type BON cells; assay type: cell-based, human; details: FIG. 2
Description: The experiments are carried out with a BON cell line stably expressing VGLUT3 or a fluorescent VGLUT2 “VGLUT2-venus”. Wild non-transfected BON cells (“wild-type”, BON WT) are used as controls. The cells are cultured in F-12 Nutrient Mixture Ham medium (21765-029, Thermo Fisher Scientific) and Dulbecco's Modified Eagle's Medium High Glucose (DMEM HG, 31966021, Thermo Fisher Scientific; volume/volume), supplemented with 10% fetal calf serum (FCS, 12483012, Thermo Fisher Scientific) and 1% (volume/volume) of a mixture of streptomycin (10 mg/mL)/penicillin (10,000 U/mL) and […] an incubator at 37 °C under 5% CO2. For the transfected clones, the medium is enriched with 0.8 mg/mL Geneticin G418 sulfate (G418, 10131027, Thermo Fisher Scientific).
Two days before each experiment, after trypsinization of the cells from a culture flask, the cell suspension is seeded at 150,000 cells/well, in twelve-well plates on glass coverslips 19 mm in diameter. For observation, these coverslips are placed in a chamber allowing a hermetic fixation of the coverslip in the observation medium, Fluorobrite™ DMEM (A1896701, Thermo Fisher Scientific), a transparent medium.
Before each observation, the cells are incubated at 37 °C in the presence of fluorescent ligands, at previously determined concentrations. The effect of a pretreatment of BON cells with a specific inhibitor of VGLUTs, the substance LSP5-2157, is also performed to study the inhibitory effect of this substance on the labeling of BON cells with the fluorescent ligands of the invention.
The cells are observed in real time under an inverted confocal microscope, with a 63× objective in a room thermostated at 37 °C (Leica TCS SP5; cellular imaging platform of the Paris-Seine Institute of Biology). The studied fluorescent molecules emit in the blue, the cells are excited at 405 nm.
FIG. 2 illustrates the observation and quantification of the BON cells under a confocal microscope, and the inhibition of the fluorescent signal by a pretreatment of the cells with the specific VGLUT inhibitor, LSP5-2157. […] The images are presented in negative. D,H,L and P: Quantification of the treatment effect.

Structure (SMILES) | double labeling spots (compatibility with immunohistochemistry) [1] | precipitation in observation medium [2] | labeling in cytoplasm of BON WT cells (BON WT cells)
Nc1ccc(-c2ccc(C#Cc3cc4cc(C(=O)O)c(=O)oc4cc3O)cc2)cc1 [LSP17-1173, 6-((4′-amino-[1,1′-biphenyl]-4-yl)ethynyl)-7-hydroxy-2-oxo-2H-chromene-3-carboxylic Acid] | The obtained spots are clear and resolved | does not precipitate in the observation medium | a weak and homogeneous labeling is detected
O=C(O)c1cc(C(=O)O)c2cc(-c3ccc(-c4ccccc4)cc3)ccc2n1 [LSP13-1152-YL152 (L8), 6-(Biphenyl-4-yl) quinoline-2,4-dicarboxylic Acid] | – | – | a weak and homogeneous labeling is detected
